Experimental data taken from paper PMC6302903, “Protein and Chemical Determinants of BL-1249 Action and Selectivity for K2P Channels” (ACS Chemical Neuroscience, 2018).

Molecular target: T1, K2P2.1(TREK-1) F185L (Mus musculus, UniProt P97438, F200L)
T1 construct: expressed in transfected cells; host or cells: Xenopus laevis oocytes, mRNA injected
Assay: TEVC of K2P2.1(TREK-1) mutant F185L
Assay type: cell-based
Conditions: Xenopus oocytes
Description: To identify K2P2.1(TREK-1) M2 residues that might participate in the BL-1249 response, we mapped the residues that differ between K2P2.1(TREK-1) and K2P4.1(TRAAK) in the context of the K2P2.1(TREK-1) structure[6] (Figure 5B,C). Two K2P2.1(TREK-1) M2 residues stood out as candidates that could explain the reduction in BL-1249 response when the entire M2 helix was replaced with M2 from K2P4.1(TRAAK). One is at the M2/M4 interface and occurs between Phe172 and Arg297 via a π–cation interaction that would be lost when Phe172 is replaced with the equivalent K2P4.1(TRAAK) residue Met134 (Figure 5C, right inset). […] To assess the importance of these interactions in the context of BL-1249 response, we made the K2P2.1(TREK-1) mutants F172M and F185L and measured their responses to BL-1249 (Figure 5D). […]
Xenopus laevis oocytes were harvested in accordance with UCSF IACUC protocol AN129690 and digested in calcium-free ND-96 (96 mM NaCl, 2 mM KCl, 3.8 mM MgCl2) immediately following harvest, as previously described.[6],[10] […] Defolliculated stage V–VI oocytes were injected with 0.2–6.0 ng of mRNA in 50 nL, and currents were recorded 24–48 h after injection. mRNA was synthesized from plasmid DNA using mMessage mMachine Kit (T7 promoter, Ambion, Life Technologies) and purified using RNEasy Kit (Qiagen). […]

T1 sequence (P97438 1-411 isoform P97438-2 F185L): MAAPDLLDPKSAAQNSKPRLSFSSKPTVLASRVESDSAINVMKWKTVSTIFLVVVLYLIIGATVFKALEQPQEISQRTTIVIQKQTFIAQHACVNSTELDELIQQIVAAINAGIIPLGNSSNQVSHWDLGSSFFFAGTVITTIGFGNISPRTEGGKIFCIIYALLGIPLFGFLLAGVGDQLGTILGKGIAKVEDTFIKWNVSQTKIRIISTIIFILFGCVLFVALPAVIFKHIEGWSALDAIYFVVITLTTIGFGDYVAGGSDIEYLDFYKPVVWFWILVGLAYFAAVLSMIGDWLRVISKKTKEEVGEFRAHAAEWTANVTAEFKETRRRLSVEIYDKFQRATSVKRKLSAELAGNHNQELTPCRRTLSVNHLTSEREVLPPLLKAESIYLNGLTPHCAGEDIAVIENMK

EC50: 27 ± 5 µM
SMILES: c1ccc(-c2nnn[nH]2)c(Nc2cccc3c2CCCC3)c1 [BL-1249, (5,6,7,8-tetrahydro-naphthalen-1-yl)-[2-(1H-tetrazol-5-yl)-phenyl]-amine]
